Measured values reported in the NIST ThermoML archive (doi:10.1016/j.fluid.2004.12.004).
± gives the expanded uncertainty stated by the source.

Conditions: 298.15 K; 101.33 kPa; Liquid; Vibrating tube method

Point of comparison: CN(C)C=O [dimethylformamide], mass density 943.81 ± 0.2 kg/m3. Against it:
- CCCCO [butan-1-ol] — lower, 805.8 ± 0.2 kg/m3
- COC(=O)c1ccccc1C(=O)OC [dimethyl 1,2-benzenedicarboxylate] — higher, 1186.9 ± 0.2 kg/m3
- CCOC(C)=O [ethyl acetate] — lower, 894.4 ± 0.6 kg/m3
- CC1CCCCC1 [methylcyclohexane] — lower, 764.96 ± 0.13 kg/m3
- CC(=O)Oc1ccccc1 [phenyl ethanoate] — higher, 1073.3 ± 0.42 kg/m3
